Activity calls are given as the source filed them. The calls are words filed in the database; no cut-off is given here.
Legend:
4T1 [1] = assay: Induction of immunogenic cell death in mouse 4T1 cells assessed as increase in ATP release by measuring increase in red fluorescence by CLSM analysis relative to R/A group; format: functional, cell-based
4T1 [2] = assay: Antitumor activity against mouse 4T1 cells allografted in female BALB/c mouse assessed as reduction in tumor tissue volume at 10 mg/kg, iv administrated every 3 day for 5 times and measured after for 22 days; format: functional, organism-based; conditions: time 22.0 day
[3] = Toxicity against female BALB/c mouse allografted with mouse 4T1 cells assessed as effect on red blood cells at 10 mg/kg, iv administrated every 3 days for 5 times and measured after 22 days; format: organism-based; conditions: in vivo, 528 h, time 22 day
[4] = Toxicity in female BALB/c mouse allografted with mouse 4T1 cells assessed as change in body weight at 100 mg/kg, po administrated every day for 15 times and measured every 2 days for 22 days relative to control; format: organism-based; conditions: in vivo, 528 h, time 22 day
[5] = Toxicity against female BALB/c mouse allografted with mouse 4T1 cells assessed as mean corpuscular hemoglobin concentration at 10 mg/kg, iv administrated every 3 days for 5 times and measured after 22 days; format: organism-based; conditions: in vivo, 528 h, time 22 day
4T1 [6] = assay: Antitumor activity against mouse 4T1 cells allografted in female BALB/c mouse assessed as increase in apoptotic cells at 10 mg/kg, iv administrated every 3 day for 5 times and measured after 22 days by TUNEL staining based assay; format: functional, organism-based; conditions: time 22.0 day
4T1 [7] = assay: Antitumor activity against mouse 4T1 cells allografted in female BALB/c mouse assessed as increase in nuclear shrinkage at 10 mg/kg, iv administrated every 3 day for 5 times and measured after 22 days; format: functional, organism-based; conditions: time 22.0 day
A549 = assay: Cytotoxicity against human A549 cells assessed as cell viability by MTT assay; format: functional, cell-based
Mitochondrial membrane = assay: Induction of mitochondrial membrane potential loss in mouse 4T1 cells assessed as increase in green fluorescence by JC-1 staining based flow cytometric analysis (reference value: 7.4 %); format: cell membranes
[8] = Half life in mouse at 100 mg/kg, po; format: ADME, organism-based; conditions: in vivo
[9] = Tmax in mouse at 100 mg/kg, po; format: ADME, organism-based; conditions: in vivo
4T1 [10] = assay: Antitumor activity against mouse 4T1 cells allografted in female BALB/c mouse assessed as tumor inhibition rate at 100 mg/kg, po administrated every day for 15 times and measured after 22 days relative to control; format: functional; set-up: scale not given: the % may be the effect or the level left; conditions: time 22 day
4T1 [11] = assay: Antitumor activity against mouse 4T1 cells allografted in female BALB/c mouse assessed as disappearance of cancer cells at 100 mg/kg, po administrated every day for 15 times and measured after 22 days by H and E staining based analysis; format: functional, organism-based; conditions: time 22.0 day
[12] = Half life in mouse iv dosed mouse; format: ADME, organism-based; conditions: in vivo
4T1 [13] = assay: Immunostimulatory activity in mouse 4T1 cells implanted in female BALB/c mouse assessed as increase in immunostimulatory CD86+ expression; format: functional, cell-based
4T1 [14] = assay: Induction of mitochondrial dysfunction in mouse 4T1 cells assessed as oxygen consumption rate; format: functional, cell-based
4T1 [15] = assay: Antitumor activity against mouse 4T1 cells allografted in female BALB/c mouse assessed as increase in infiltration of CD3+ CD8+ T lymphocytes in tumors at 100 mg/kg, po administrated every day for 15 times and measured after 22 days by flow cytometry (reference value: 6.91 %); format: functional; conditions: time 22 day
[16] = Drug localization in mitochondria of mouse 4T1 cells assessed as fluorescence intensity measured using pearson co-efficient incubated for 10 hrs by mito-tracker red fluorescent dye based confocal laser scanning microscopic analysis; format: ADME; conditions: 4t1, 10 h
4T1 [17] = assay: Cytotoxicty against mouse 4T1 cells assessed as cell death by measuring red staining by calcein/PI staining based live/dead staining analysis; format: functional
[18] = Toxicity against female BALB/c mouse allografted with mouse 4T1 cells assessed as effect on red blood cells at 100 mg/kg, po administrated every day for 15 times and measured after 22 days; format: organism-based; conditions: in vivo, 528 h, time 22 day
[19] = Toxicity in female BALB/c mouse allografted with mouse 4T1 cells assessed as change in body weight at 10 mg/kg, iv administrated every 3 day for 5 times and measured every 2 days for 22 days relative to control; format: organism-based; conditions: in vivo, 528 h, time 22 day
4T1 [20] = assay: Induction of apoptosis in mouse 4T1 cells assessed as necrotic cells by Annexin V-FITC and PI staining based flow cytometry analysis (reference value: 0.085 %); format: functional
HeLa = assay: Cytotoxicity against human Hela cells assessed as cell viability by MTT assay; format: functional, cell-based
4T1 [21] = assay: Induction of apoptosis in mouse 4T1 cells assessed as viable cells by Annexin V-FITC and PI staining based flow cytometry analysis (reference value: 96.2 %); format: functional
4T1 [22] = assay: Antitumor activity against mouse 4T1 cells allografted in female BALB/c mouse assessed as increase in infiltration of CD44+CD62L- lymphocytes in tumors at 100 mg/kg, po administrated every day for 15 times and measured after 22 days by flow cytometry (reference value: 5.5%); format: functional; conditions: time 22 day
4T1 [23] = assay: Antitumor activity against mouse 4T1 cells allografted in female BALB/c mouse assessed as reduction in tumor tissue weight at 100 mg/kg, po administrated every day for 15 times and measured after 22 days; format: functional, organism-based; conditions: time 22.0 day
4T1 [24] = assay: Antitumor activity against mouse 4T1 cells allografted in female BALB/c mouse assessed as increase in apoptotic cells at 100 mg/kg, po administrated every day for 15 times and measured after 22 days by TUNEL staining based assay; format: functional, organism-based; conditions: time 22.0 day
4T1 [25] = assay: Antitumor activity against mouse 4T1 cells allografted in female BALB/c mouse assessed as inhibition of cell proliferation at 10 mg/kg, iv administrated every 3 day for 5 times and measured after 22 days by PCNA assay; format: functional, organism-based; conditions: time 22.0 day
4T1 [26] = assay: Potency index, ratio of paclitaxel IC50 to test compound IC50 for cytotoxicity against mouse 4T1 cells assessed as cell viability by MTT assay; format: functional
[27] = Oral bioavailability in mouse at 100 mg/kg; format: ADME, organism-based; conditions: in vivo
4T1 [28] = assay: Induction of repolarization of M2 macrophages into M1 macrophages in mouse 4T1 cells assessed as ratio of M2 to M1 macrophages; format: functional, cell-based
4T1 [29] = assay: Induction of apoptosis in mouse 4T1 cells assessed as early apoptotic cells by Annexin V-FITC and PI staining based flow cytometry analysis(reference value: 3.60 %); format: functional
4T1 [30] = assay: Induction of immunogenic cell death in mouse 4T1 cells assessed as increase in CRT expression by flow cytometry analysis (reference value: 2.55%); format: functional
4T1 [31] = assay: Induction of mitochondrial dysfunction in mouse 4T1 cells assessed as coupling efficiency; format: functional, cell-based
[32] = Drug uptake in mouse 4T1 cells after 3 hrs by flow cytometry analysis; format: ADME, cell-based; conditions: 4t1, 3 h
[33] = Toxicity against female BALB/c mouse allografted with mouse 4T1 cells assessed as effect on white blood cells at 10 mg/kg, iv administrated every 3 days for 5 times and measured after 22 days; format: organism-based; conditions: in vivo, 528 h, time 22 day
4T1 [34] = assay: Antitumor activity against mouse 4T1 cells allografted in female BALB/c mouse assessed as increase in infiltration of CD44+CD62L- lymphocytes in tumors at 10 mg/kg, iv administrated every day for 15 times and measured after 22 days by flow cytometry (reference value: 5.17%); format: functional; conditions: time 22 day
MCF7 = assay: Cytotoxicity against human MCF7 cells assessed as cell viability by MTT assay; format: functional, cell-based
4T1 [35] = assay: Antitumor activity against mouse 4T1 cells allografted in female BALB/c mouse assessed as inhibition of cell proliferation at 100 mg/kg, po administrated every day for 15 times and measured after 22 days by PCNA assay; format: functional, organism-based; conditions: time 22.0 day

Question: What does the source list for C[C@H]1[C@H](OC(=O)CCC(=O)OCCCCOC(=O)c2cc(O)c3c(c2)C(=O)c2cccc(O)c2C3=O)O[C@@H]2O[C@@]3(C)CC[C@H]4[C@H](C)CC[C@@H]1[C@@]24OO3?
Answer: Activity (4T1 [1]): Active; Activity (4T1 [2]): Active; Activity [3]: Non-toxic; Activity [4]: Non-toxic; Activity [5]: Non-toxic; Activity (4T1 [6]): Active; Activity (4T1 [7]): Active; IC50 (A549): 2.79 µM; Activity (Mitochondrial membrane): 45.6%; half-life [8]: 5.15 h; Tmax [9]: 3 h; Activity (4T1 [10]): 76.84%; Activity (4T1 [11]): Active; half-life [12]: 7.01 h; Activity (4T1 [13]): Active; Activity (4T1 [14]): Active; Activity (4T1 [15]): 15.4%; Flu intensity [16]: 0.96; Activity (4T1 [17]): Active; Activity [18]: Non-toxic; Activity [19]: Non-toxic; Activity (4T1 [20]): 0.27%; IC50 (HeLa): 2.43 µM; Activity (4T1 [21]): 35.5%; Activity (4T1 [22]): 17.2%; Activity (4T1 [23]): Active; Activity (4T1 [24]): Active; Activity (4T1 [25]): Active; Ratio IC50 (4T1 [26]): 3; bioavailability [27]: 15.8%; Activity (4T1 [28]): Active; Compound Triggers Repolarization By Reversing The Ratio Of M2 To M1 Macrophages; Activity (4T1 [29]): 34.8%; Activity (4T1 [30]): 32.82%; Activity (4T1 [31]): Active; Activity [32]: Active; Activity [33]: Non-toxic; Activity (4T1 [34]): 14.4%; IC50 (MCF7): 1.9 µM; Activity (4T1 [35]): Active

Source: ChEMBL document CHEMBL6120988, “Mitochondria-targeting artesunate-rhein conjugates: Linker-modulated cell-permeability, heme-affinity and anticancer activity” (Eur J Med Chem, 2025)
